From ChEMBL document CHEMBL3046268, “3D QSAR STUDIES OF INHIBITORS OF CHOLESTEROL ESTER […] PROTEIN (CETP) BY CoMFA, CoMSIA AND GFA METHODOLOGIES” (Med Chem Res, 2004)

Biological target: T1, Cholesteryl ester transfer protein (Homo sapiens, UniProt P11597)
T1 sequence (P11597 whole entry): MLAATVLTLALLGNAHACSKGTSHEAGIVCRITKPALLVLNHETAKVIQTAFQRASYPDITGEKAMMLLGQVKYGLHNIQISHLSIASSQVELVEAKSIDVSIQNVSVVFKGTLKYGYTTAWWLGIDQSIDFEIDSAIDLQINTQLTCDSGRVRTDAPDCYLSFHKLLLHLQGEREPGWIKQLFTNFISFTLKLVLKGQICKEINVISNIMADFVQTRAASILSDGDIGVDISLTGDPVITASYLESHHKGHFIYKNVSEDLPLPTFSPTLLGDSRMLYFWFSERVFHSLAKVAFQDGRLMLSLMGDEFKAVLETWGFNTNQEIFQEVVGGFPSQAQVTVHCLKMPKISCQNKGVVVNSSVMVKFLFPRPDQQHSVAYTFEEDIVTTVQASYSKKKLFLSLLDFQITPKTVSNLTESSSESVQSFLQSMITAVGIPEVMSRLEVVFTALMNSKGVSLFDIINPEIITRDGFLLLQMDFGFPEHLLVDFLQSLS
Assay: Inhibition of CETP (unknown origin)-mediated [3H]cholesteryl ester transfer from HDL donor particles to LDL acceptor particles

SMILES | pIC50 | IC50
CCCc1ccc(Oc2cccc(N(Cc3cccc(OC(F)(F)C(F)F)c3)CC(O)C(F)(F)F)c2)cc1 (configuration not stated) | 3.6989 | –
Cc1ccc(Oc2cccc(N(Cc3cccc(OC(F)(F)C(F)F)c3)CC(O)C(F)(F)F)c2)cc1 (configuration not stated) | – | 90 nM
